Source: article PMC10388362, “Fluorescent Ligands Enable Target Engagement Studies for the Intracellular Allosteric Binding Site of the Chemokine Receptor CXCR2” (Journal of Medicinal Chemistry, 2023)

Key:
[1] = biological target: T1, CCR2 (Homo sapiens, UniProt P41597); experiment: Membrane-based NanoBRET saturation assay, selectivity (CCR2_GSSG_Nluc membranes)
T1 construct: host or cells: HEK293T; membrane preparation
T1 sequence (P41597 1-360 isoform P41597-2): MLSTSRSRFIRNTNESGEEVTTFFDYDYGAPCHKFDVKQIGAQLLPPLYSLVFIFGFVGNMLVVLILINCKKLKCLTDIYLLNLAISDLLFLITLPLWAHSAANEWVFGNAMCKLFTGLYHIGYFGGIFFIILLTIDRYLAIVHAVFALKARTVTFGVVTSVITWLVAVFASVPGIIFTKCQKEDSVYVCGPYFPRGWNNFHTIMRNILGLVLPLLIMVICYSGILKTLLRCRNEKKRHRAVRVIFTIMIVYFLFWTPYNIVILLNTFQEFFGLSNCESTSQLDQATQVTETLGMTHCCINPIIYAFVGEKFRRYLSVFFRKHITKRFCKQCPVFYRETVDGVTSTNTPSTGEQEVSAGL
Method: (§1) For the establishment of our NanoBRET binding assay, we referred to a recently published protocol.[45] The fluorescent ligands (9a–c) were dissolved in DMSO (1 mM) and further diluted to varying concentrations in an assay buffer (50 mM Na2HPO4, 50 mM KH2PO4, pH 7.4, 1 mg/mL saponin, 5% FBS) and 5 μL of these dilutions were pipetted to a 384-well plate. To determine the total binding, 5 μL of the assay buffer was added to the corresponding wells, while 5 μL of a solution of 3 in the assay buffer (final assay concentration: 1 μM) was used to determine nonspecific binding. Then, 20 μL of the membrane preparations diluted in the assay buffer (2 μg total protein/well) were added and the plates were incubated for 90 min at 37 °C. Subsequently, 5 μL of a furimazine solution (Promega, Mannheim, Germany, final assay dilution: 1:5000) was added to each well (final assay volume: 35 μL) before measuring luminescence with a CLARIOstar microplate reader using 620/10 and 475/30 nm emission filters after 5 min of incubation in the dark. Bioluminescence resonance energy transfer (BRET) was determined as the ratio of acceptor fluorescence and donor luminescence. […] Specific binding signals were calculated as a difference of total and nonspecific binding. If required, netBRET values were calculated as the difference between total BRET values and the values obtained in the absence of a fluorescent ligand. […]

[2] = biological target: T2, CCR7 (Homo sapiens, UniProt P32248); experiment: Membrane-based NanoBRET saturation assay, selectivity (CCR7_GSSG_Nluc membranes)
T2 construct: host or cells: HEK293T; membrane preparation
T2 sequence (P32248 25-378): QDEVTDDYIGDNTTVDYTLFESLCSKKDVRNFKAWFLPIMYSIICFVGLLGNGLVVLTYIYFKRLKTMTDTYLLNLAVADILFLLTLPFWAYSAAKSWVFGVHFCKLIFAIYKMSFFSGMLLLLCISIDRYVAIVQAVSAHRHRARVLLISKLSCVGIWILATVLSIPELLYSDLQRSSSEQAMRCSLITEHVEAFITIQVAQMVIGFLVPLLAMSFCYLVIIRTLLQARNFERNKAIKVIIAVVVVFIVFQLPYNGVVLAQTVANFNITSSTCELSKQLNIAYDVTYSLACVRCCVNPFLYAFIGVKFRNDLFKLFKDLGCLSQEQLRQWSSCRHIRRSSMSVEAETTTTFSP
Method: as §1

[3] = biological target: T3, CCR9 (Homo sapiens, UniProt P51686); experiment: Membrane-based NanoBRET saturation assay, selectivity (CCR9_Nluc membranes)
T3 construct: host or cells: HEK293T; membrane preparation
T3 sequence (P51686 1-369): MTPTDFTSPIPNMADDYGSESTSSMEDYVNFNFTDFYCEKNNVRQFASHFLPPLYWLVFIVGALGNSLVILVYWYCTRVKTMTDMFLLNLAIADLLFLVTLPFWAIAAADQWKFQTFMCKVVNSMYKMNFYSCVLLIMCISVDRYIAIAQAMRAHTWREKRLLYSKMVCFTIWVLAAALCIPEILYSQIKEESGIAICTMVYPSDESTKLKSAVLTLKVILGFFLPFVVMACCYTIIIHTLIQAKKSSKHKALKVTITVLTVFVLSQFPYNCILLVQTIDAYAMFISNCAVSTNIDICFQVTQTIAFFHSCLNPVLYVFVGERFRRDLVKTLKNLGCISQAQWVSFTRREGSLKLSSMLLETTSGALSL
Method: as §1

Cc1ccc([C@H](Nc2c(Nc3cccc(C(=O)NCc4cn(CCOCCOCCOCCNC(=O)c5ccc(C(=O)[O-])c(-c6c7ccc(=[N+](C)C)cc-7oc7cc(N(C)C)ccc67)c5)nn4)c3O)c(=O)c2=O)C(C)(C)C)o1 [9a, (R)-4-((2-(2-(2-(2-(4-((3-((2-((2,2-Dimethyl-1-(5-methylfuran-2-yl)propyl)amino)-3,4-dioxocyclobut-1-en-1-yl)amino)-2-hydroxybenzamido)methyl)-1H-1,2,3-triazol-1-yl)ethoxy)ethoxy)ethoxy)ethyl)carbamoyl)-2-(6-(dimethylamino)-3-(dimethyliminio)-3H-xanthen-9-yl)benzoate]
no significant binding: binding to CCR2 [1] | binding to CCR7 [2] | binding to CCR9 [3]
